From patent US20230103791A1 (GLAXOSMITHKLINE INTELLECTUAL PROPERTY DEVELOPMENT LIMITED, priority 2019, published 2023)

Target: T1, human Nav1.8 (Homo sapiens, UniProt Q9Y5Y9)
T1 construct: expressed in transfected cells; host or cells: HEK293 (HEK293-Nav1.8)
Test: Nav1.8 sodium channels assay, QPatch 48 HTX electrophysiology in HEK293-Nav1.8 cells
Assay type: cell-based
Conditions: at least one set of experimental runs; read-out: average pIC50 value against Nav1.8 (converted)
How it was run: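 IC50 came from 6-8 point curves of P2 current amplitude, normalized to baseline and a positive reference, and corrected for run-down using vehicle-only wells. Automated patch clamp used HEK293-Nav1.8 (with Navβ1 and TREK1) at pH 7.4 outside and CsF-based solution inside. An 8 s inactivating step at −46 mV preceded the 0 mV test pulse, repeated at 0.07 Hz.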

T1 sequence (Q9Y5Y9 whole entry): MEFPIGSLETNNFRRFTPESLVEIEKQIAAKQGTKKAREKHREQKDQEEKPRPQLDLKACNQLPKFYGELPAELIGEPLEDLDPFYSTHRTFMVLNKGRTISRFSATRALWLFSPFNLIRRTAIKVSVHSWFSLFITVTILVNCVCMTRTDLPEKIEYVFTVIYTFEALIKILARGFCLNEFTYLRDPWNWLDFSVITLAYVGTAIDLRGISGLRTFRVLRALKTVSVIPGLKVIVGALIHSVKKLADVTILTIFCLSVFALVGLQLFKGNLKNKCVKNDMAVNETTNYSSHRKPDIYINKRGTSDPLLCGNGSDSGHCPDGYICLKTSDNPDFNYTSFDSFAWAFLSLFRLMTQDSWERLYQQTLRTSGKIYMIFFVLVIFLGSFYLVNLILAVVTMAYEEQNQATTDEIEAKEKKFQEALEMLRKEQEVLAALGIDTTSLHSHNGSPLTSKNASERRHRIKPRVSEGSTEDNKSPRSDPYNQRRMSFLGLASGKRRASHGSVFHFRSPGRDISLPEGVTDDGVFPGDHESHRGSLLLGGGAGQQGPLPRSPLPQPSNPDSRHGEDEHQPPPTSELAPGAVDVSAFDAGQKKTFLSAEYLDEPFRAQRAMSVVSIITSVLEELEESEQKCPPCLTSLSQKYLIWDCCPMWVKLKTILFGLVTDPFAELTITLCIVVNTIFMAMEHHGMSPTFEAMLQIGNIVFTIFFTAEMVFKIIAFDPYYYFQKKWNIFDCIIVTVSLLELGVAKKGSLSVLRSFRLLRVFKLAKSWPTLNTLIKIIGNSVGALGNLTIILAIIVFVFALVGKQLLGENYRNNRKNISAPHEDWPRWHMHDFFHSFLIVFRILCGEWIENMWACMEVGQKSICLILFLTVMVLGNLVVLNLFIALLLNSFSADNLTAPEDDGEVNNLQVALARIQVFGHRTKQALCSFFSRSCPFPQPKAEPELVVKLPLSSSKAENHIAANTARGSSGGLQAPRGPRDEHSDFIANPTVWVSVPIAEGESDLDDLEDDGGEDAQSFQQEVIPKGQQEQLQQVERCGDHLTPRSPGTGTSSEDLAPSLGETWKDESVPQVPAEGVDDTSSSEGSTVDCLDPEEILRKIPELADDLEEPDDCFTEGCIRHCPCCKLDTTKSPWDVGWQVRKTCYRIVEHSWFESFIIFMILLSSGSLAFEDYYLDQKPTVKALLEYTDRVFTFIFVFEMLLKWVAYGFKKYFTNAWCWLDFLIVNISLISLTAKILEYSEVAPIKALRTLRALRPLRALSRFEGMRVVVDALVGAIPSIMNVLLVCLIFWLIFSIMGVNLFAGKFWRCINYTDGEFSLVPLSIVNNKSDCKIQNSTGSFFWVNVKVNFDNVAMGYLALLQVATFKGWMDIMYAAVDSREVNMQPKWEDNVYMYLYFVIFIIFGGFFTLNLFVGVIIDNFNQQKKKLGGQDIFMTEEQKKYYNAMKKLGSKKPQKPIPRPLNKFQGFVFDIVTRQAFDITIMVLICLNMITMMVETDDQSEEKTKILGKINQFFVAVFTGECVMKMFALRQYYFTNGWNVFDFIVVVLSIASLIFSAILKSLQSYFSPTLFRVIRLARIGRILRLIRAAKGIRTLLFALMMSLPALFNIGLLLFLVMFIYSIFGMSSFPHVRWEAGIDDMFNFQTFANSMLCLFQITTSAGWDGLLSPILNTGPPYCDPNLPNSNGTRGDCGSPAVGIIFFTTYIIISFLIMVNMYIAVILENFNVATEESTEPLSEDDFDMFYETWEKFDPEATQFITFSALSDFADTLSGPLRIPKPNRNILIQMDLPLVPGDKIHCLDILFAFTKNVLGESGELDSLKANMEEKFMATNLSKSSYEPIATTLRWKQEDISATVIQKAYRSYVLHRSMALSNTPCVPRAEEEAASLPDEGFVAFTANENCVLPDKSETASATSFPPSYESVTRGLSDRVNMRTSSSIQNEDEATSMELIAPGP
T1 sequence (Q07699 19-218 partner): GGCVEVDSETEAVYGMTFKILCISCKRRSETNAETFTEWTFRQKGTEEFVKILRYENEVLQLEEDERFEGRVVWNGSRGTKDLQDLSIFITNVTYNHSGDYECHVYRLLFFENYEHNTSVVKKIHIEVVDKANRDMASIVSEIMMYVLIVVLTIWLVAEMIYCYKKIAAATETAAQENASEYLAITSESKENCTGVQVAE

SMILES	IC50
Cc1cc(F)ccc1N1CN(c2ccc(=O)[nH]c2C)C(=O)c2ccc(N(C)C)cc21 [Example 65, 7-(dimethylamino)-1-(4-fluoro-2-methylphenyl)-3-(2-methyl-6-oxo-1,6-dihydropyridin-3-yl)-2,3-dihydroquinazolin-4(1H)-one]	≤ 0.1 µM
Cc1cc(F)ccc1N1CN(c2ccc(=O)[nH]c2C)C(=O)c2ccc(Cl)cc21 [Example 66, 7-chloro-1-(4-fluoro-2-methylphenyl)-3-(2-methyl-6-oxo-1,6-dihydropyridin-3-yl)-2,3-dihydroquinazolin-4(1H)-one]	≤ 0.1 µM
CNc1ccc2c(c1)N(c1ccc(F)cc1C)CN(c1ccc(=O)[nH]c1C)C2=O [Example 67, 1-(4-fluoro-2-methylphenyl)-3-(2-methyl-6-oxo-1,6-dihydropyridin-3-yl)-7-(methylamino)-2,3-dihydroquinazolin-4(1H)-one]	0.126 to 0.631 µM
CCOc1cc(F)ccc1N1CN(c2ccc(=O)[nH]c2C)C(=O)c2cc(Cl)ccc21 [Example 68, 6-chloro-1-(2-ethoxy-4-fluorophenyl)-3-(2-methyl-6-oxo-1,6-dihydropyridin-3-yl)-2,3-dihydroquinazolin-4(1H)-one]	0.126 to 0.631 µM
Cc1ccc2c(c1)N(c1ccc(F)cc1C(C)C)CN(c1ccc(=O)[nH]c1C)C2=O [Example 69, 1-(4-fluoro-2-isopropylphenyl)-7-methyl-3-(2-methyl-6-oxo-1,6-dihydropyridin-3-yl)-2,3-dihydroquinazolin-4(1H)-one]	≤ 0.1 µM
Cc1cc(F)ccc1N1CN(c2ccc(=O)[nH]c2C)C(=O)c2cc(F)c(C(F)F)cc21 [Example 70, 7-(difluoromethyl)-6-fluoro-1-(4-fluoro-2-methylphenyl)-3-(2-methyl-6-oxo-1,6-dihydropyridin-3-yl)-2,3-dihydroquinazolin-4(1H)-one]	≤ 0.1 µM
Cc1cc(F)ccc1N1CN(c2ccc(=O)[nH]c2C)C(=O)c2cc(F)c(C)nc21 [Example 71, 6-fluoro-1-(4-fluoro-2-methylphenyl)-7-methyl-3-(2-methyl-6-oxo-1,6-dihydropyridin-3-yl)-2,3-dihydropyrido[2,3-d]pyrimidin-4(1H)-one]	0.126 to 0.631 µM
Cc1cc(F)ccc1N1CN(c2ccc(=O)[nH]c2C)C(=O)c2cc(Cl)c(C)nc21 [Example 72, 6-chloro-1-(4-fluoro-2-methylphenyl)-7-methyl-3-(2-methyl-6-oxo-1,6-dihydropyridin-3-yl)-2,3-dihydropyrido[2,3-d]pyrimidin-4(1H)-one]	≤ 0.1 µM
Cc1cc(F)ccc1N1CN(c2ccc(=O)[nH]c2C)C(=O)c2cc(Cl)c(Cl)nc21 [Example 73, 6,7-dichloro-1-(4-fluoro-2-methylphenyl)-3-(2-methyl-6-oxo-1,6-dihydropyridin-3-yl)-2,3-dihydropyrido[2,3-d]pyrimidin-4(1H)-one]	≤ 0.1 µM
Cc1cc(OC(F)(F)F)ccc1N1CN(c2ccc(=O)[nH]c2C)C(=O)c2c1ccc(Cl)c2F [Example 74, 6-chloro-5-fluoro-1-(2-methyl-4-(trifluorometh-oxy)phenyl)-3-(2-methyl-6-oxo-1,6-dihydropyridin-3-yl)-2,3-dihydroquinazolin-4(1H)-one]	≤ 0.1 µM
Cc1cc(F)ccc1N1CN(c2ccc(=O)[nH]c2C)C(=O)c2cc(C#N)ccc21 [Example 75, 1-(4-fluoro-2-methylphenyl)-3-(2-methyl-6-oxo-1,6-dihydropyridin-3-yl)-4-oxo-1,2,3,4-tetrahydroquin-azoline-6-carbonitrile]	0.126 to 0.631 µM
Cc1[nH]c(=O)ccc1N1CN(c2ccc(F)cc2C(C)C)c2ccc(Cl)cc2C1=O [Example 76, 6-chloro-1-(4-fluoro-2-isopropylphenyl)-3-(2-methyl-6-oxo-1,6-dihydropyridin-3-yl)-2,3-dihydroquinazolin-4(1H)-one]	≤ 0.1 µM
Cc1[nH]c(=O)ccc1N1CN(c2ccc(F)c(O)c2C)c2cc(C(F)(F)F)ccc2C1=O [Example 77, 1-(4-fluoro-3-hydroxy-2-methylphenyl)-3-(2-methyl-6-oxo-1,6-dihydropyridin-3-yl)-7-(trifluoromethyl)-2,3-dihydroquinazolin-4(1H)-one]	0.126 to 0.631 µM
Cc1cc(F)ccc1N1CN(c2ccc(=O)[nH]c2)C(=O)c2c1ccc(Cl)c2F [Example 78, 6-chloro-5-fluoro-1-(4-fluoro-2-methylphenyl)-3-(6-oxo-1,6-dihydropyridin-3-yl)-2,3-dihydroquinazolin-4(1H)-one]	0.126 to 0.631 µM
Cc1cc(F)ccc1N1CN(c2ccc(=O)[nH]c2C)C(=O)c2c1ccc(Cl)c2F [Example 79, 6-chloro-5-fluoro-1-(4-fluoro-2-methylphenyl)-3-(2-methyl-6-oxo-1,6-dihydropyridin-3-yl)-2,3-dihydroquinazolin-4(1H)-one]	≤ 0.1 µM
Cc1cc(F)ccc1N1CN(c2ccc(=O)[nH]c2C)C(=O)c2ccc(S(C)(=O)=O)cc21 [Example 80, 1-(4-fluoro-2-methylphenyl)-3-(2-methyl-6-oxo-1,6-dihydropyridin, 3-yl)-7-(methylsulfonyl)-2,3-dihydroquinazolin-4(1H)-one]	0.794 to 7.94 µM

Results, then the compound that gave them:

IC50	SMILES
≤ 0.1 µM	CCc1cc(F)ccc1N1CN(c2ccc(=O)[nH]c2C)C(=O)c2cc(Cl)ccc21 [Example 81, 6-chloro-1-(2-ethyl-4-fluorophenyl)-3-(2-methyl-6-oxo-1,6-dihydropyridin-3-yl)-2,3-dihydroquinazolin-4(1H)-one]
0.126 to 0.631 µM	Cc1cc(=O)[nH]c(C)c1N1CN(c2ccc(F)cc2C(C)C)c2ccc(Cl)cc2C1=O [Example 82, 6-chloro-3-(2,4-dimethyl-6-oxo-1,6-dihydropyridin-3-yl)-1-(4-fluoro-2-isopropylphenyl)-2,3-dihydroquinazolin-4(1H)-one]
≤ 0.1 µM	CCc1[nH]c(=O)ccc1N1CN(c2ccc(F)cc2C(C)C)c2cc(C(F)(F)F)ccc2C1=O [Example 83, 3-(2-ethyl-6-oxo-1,6-dihydropyridin-3-yl)-1-(4-fluoro-2-isopropylphenyl)-7-(trifluoromethyl)-2,3-dihydroquinazolin-4(1H)-one]
0.794 to 7.94 µM	Cc1cc(F)ccc1N1CN(c2c[nH]c(=O)cn2)C(=O)c2ccc(C(F)(F)F)cc21 [Example 84, 1-(4-fluoro-2-methylphenyl)-3-(5-oxo-4,5-dihydropyrazin-2-yl)-7-(trifluoromethyl)-2,3-dihydroquinazolin-4(1H)-one]
≤ 0.1 µM	Cc1cc2c(cc1F)C(=O)N(c1ccc(=O)[nH]c1C)CN2c1ccc(F)cc1C [Example 85, 6-fluoro-1-(4-fluoro-2-methylphenyl)-7-methyl-3-(2-methyl-6-oxo-1,6-dihydropyridin-3-yl)-2,3-dihydroquinazolin-4(1H)-one]
0.794 to 7.94 µM	Cc1[nH]c(=O)ccc1N1CN(c2ccccc2)c2cc(C(F)(F)F)ccc2C1=O [Example 86, 3-(2-methyl-6-oxo-1,6-dihydropyridin-3-yl)-1-phenyl-7-(trifluoromethyl)-2,3-dihydroquinazolin-4(1H)-one]
≤ 0.1 µM	Cc1ccccc1N1CN(c2ccc(=O)[nH]c2C)C(=O)c2ccc(C(F)(F)F)cc21 [Example 87, 3-(2-methyl-6-oxo-1,6-dihydropyridin-3-yl)-1-(o-tolyl)-7-(trifluoromethyl)-2,3-dihydroquinazolin-4(1H)-one]
0.126 to 0.631 µM	Cc1cc(F)ccc1N1CN(c2ccc(=O)[nH]c2C)C(=O)c2c(Cl)cccc21 [Example 88, 5-chloro-1-(4-fluoro-2-methylphenyl)-3-(2-methyl-6-oxo-1,6-dihydropyridin-3-yl)-2,3-dihydroquinazolin-4(1H)-one]
